Measured values reported in ChEMBL document CHEMBL1201862, “PubChem BioAssay data set” (2004).
Active and inactive are the calls of the source.

Legend:
[1] = C. albicans growth with fluconazole, confirmation, fluorescence, retest (AID 2467); assay type: functional, cell-based
[2] = target: T1, Heat shock factor protein 1 (Mus musculus, UniProt P38532); experiment: HSF1 potentiators in luciferase reporter cells, confirmation, cell-based, NIH3T3, luminescence, dose retest (AID 435004); assay type: functional;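 further: stress induced by proteasome inhibitor MG132 added 30 min after compound; luciferase reporter driven by HSF1 response element in NIH3T3 cells; actives raise luminescence as potentiators of the MG132 stress response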
T1 sequence (P38532 whole entry): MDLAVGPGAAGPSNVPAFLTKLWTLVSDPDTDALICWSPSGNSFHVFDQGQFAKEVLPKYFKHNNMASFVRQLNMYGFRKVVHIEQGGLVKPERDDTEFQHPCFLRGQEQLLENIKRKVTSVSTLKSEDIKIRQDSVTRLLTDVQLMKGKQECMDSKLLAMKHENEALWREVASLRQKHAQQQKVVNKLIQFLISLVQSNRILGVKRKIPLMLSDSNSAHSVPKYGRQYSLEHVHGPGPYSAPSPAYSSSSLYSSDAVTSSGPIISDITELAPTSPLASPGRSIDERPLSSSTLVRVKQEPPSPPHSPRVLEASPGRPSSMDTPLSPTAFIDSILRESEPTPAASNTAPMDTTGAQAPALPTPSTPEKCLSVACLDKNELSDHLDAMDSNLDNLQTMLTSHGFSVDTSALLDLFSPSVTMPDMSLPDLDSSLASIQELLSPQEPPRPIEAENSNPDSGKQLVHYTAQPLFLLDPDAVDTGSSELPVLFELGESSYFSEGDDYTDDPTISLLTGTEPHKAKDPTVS

[3] = growth suppression of beta-catenin-knockout colon cells, dose response, cell-based, HCT116, human colon tumor (AID 1045); assay type: functional;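 further: HCT116 colon tumor cells with beta catenin knocked out; cells exposed to compound for 60 hours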
BJ [4] = experiment: cells; assay type: functional, cell-based; conditions: Homo sapiens
BJ [5] = experiment: cytotoxicity toward BJ-TERT-LT-ST fibroblasts, dose response, cell-based, RAS-independent, luminescence (AID 1935); assay type: functional; conditions: Homo sapiens;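 further: BJ fibroblasts immortalized with TERT plus LT and ST oncogenes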
[6] = NIH-3T3 fibroblast cytotoxicity, dose response, cytotoxicity control, cell-based, fluorescence, Alamar Blue, secondary assay (AID 2327); assay type: functional;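 further: NIH-3T3 mouse fibroblasts cultured with fluconazole at 8 µg/mL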
[7] = growth suppression of PTEN-null colon cells, dose response, cell-based, HCT116 PTEN knockout (AID 1047); assay type: functional;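 further: HCT116 colon tumor cells with PTEN knocked out; cells exposed to compound for 60 hours before readout; potency for loss of cell viability measured by luminescence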
BJ [8] = experiment: cytotoxicity toward Ras-transformed BJeLR fibroblasts, dose response, cell-based, alamar blue fluorescence, cherrypicked samples (AID 2631); assay type: functional; conditions: Homo sapiens;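 further: confirmatory dose-response assay in RAS-dependent BJ fibroblasts engineered with TERT, LT and ST, with cytotoxicity read by fluorescence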
[9] = cytotoxicity toward DRD oncogenic fibroblasts, dose response, cell-based, non-viral oncogenic, luminescence (AID 1934); assay type: functional; conditions: Homo sapiens
BJ [10] = experiment: cytotoxicity toward BJ-TERT fibroblasts, dose response, cell-based, RAS-independent, luminescence (AID 1933); assay type: functional; conditions: Homo sapiens
Paired box protein Pax-8 = Paired box protein Pax-8 (Homo sapiens, UniProt Q06710); experiment: inhibitors of PAX8-driven TPO luciferase reporter, dose response, RMG-I cells, cherry-pick (AID 687027); assay type: functional, cell-based;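 further: luciferase reporter driven by Pax8 target thyroperoxidase promoter measured by SteadyGlo luminescence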
[11] = cytotoxicity in OVCAR8 ovarian cancer cells, dose response, PAX8 project, cell-based, plate reader, dry powder samples (AID 743197); assay type: functional; conditions: OVCAR-8
[12] = NIH:OVCAR-3 ovarian cancer cell cytotoxicity, dose response, PAX8 inhibitor project, plate reader, dry powder samples (AID 743044); assay type: functional, cell-based
H9c2 = experiment: cells; assay type: functional, cell-based; conditions: Rattus norvegicus, H9c2, Myocardium;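 further: confirmatory concentration-response retest of ultra-high-throughput screening hits for modulation of myocardial damage; cell death induced by hydrogen peroxide oxidative stress; compound pretreatment for 60 min then peroxide exposure for 2 h; potency is for protecting the cells against peroxide damage rather than for killing them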
[13] = target: T2, Microphthalmia-associated transcription factor (Homo sapiens, UniProt O75030); experiment: TRPM1 promoter luciferase signal decrease, dose response, MITF inhibitor project, cell-based, SK-MEL-5, cherry-picked, set 3 (AID 493073); assay type: functional
T2 sequence (O75030 whole entry): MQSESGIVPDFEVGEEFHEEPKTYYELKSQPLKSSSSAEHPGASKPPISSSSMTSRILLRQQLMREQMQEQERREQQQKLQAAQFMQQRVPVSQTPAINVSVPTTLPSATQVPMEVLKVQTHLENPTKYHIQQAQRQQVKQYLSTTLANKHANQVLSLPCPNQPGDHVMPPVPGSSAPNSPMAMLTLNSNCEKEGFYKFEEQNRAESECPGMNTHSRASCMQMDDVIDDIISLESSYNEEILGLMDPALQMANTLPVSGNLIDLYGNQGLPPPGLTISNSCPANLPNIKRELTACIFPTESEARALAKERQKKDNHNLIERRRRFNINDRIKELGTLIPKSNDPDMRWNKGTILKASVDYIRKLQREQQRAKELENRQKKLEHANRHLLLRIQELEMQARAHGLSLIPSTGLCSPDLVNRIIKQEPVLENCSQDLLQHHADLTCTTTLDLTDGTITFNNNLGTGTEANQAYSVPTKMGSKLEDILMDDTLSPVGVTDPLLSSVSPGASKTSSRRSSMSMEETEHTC

Hexokinase = target: T3, Hexokinase (Trypanosoma brucei, UniProt Q38C41); experiment: Confirmation assay for inhibitors of Trypanosoma brucei hexokinase 1-Analogue-first series. [Related pubchem assays (depositor defined):AID1430, AID1632, AID2516, AID2560, AID2579, AID2600, AID449725, AID492951]; assay type: functional
T3 sequence (Q38C41 whole entry): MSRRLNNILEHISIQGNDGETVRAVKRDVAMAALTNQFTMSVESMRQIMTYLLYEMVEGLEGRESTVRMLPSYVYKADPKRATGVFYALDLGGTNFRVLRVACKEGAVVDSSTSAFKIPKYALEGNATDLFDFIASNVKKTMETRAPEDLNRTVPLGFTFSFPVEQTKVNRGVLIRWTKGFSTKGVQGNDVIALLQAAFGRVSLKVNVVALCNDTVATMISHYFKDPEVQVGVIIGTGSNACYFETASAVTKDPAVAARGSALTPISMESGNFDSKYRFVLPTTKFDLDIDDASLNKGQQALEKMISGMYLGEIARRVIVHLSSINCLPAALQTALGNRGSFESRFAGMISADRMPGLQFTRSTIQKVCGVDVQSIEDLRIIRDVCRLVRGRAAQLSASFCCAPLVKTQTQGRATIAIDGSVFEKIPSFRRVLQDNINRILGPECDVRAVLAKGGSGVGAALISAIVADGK

[14] = inhibitors of intracellular T. cruzi replication, confirmation, NIH3T3 host cells, beta-gal luminescence (AID 2044); assay type: functional, cell-based;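 further: intracellular parasites grown in NIH/3T3 mouse fibroblasts as host cells; luminescent beta-galactosidase reporter signal from transgenic T. cruzi replicating inside host cells; inhibitors lower the luminescence signal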
[15] = cytotoxicity toward NIH3T3 fibroblasts, dose response, counter-screen, cell-based, ATP luminescence, mouse fibroblasts (AID 2010); assay type: functional;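 further: cells exposed to compound for about 90 hours before reading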
[16] = target: T4, Ubiquitin-conjugating enzyme E2 N (Homo sapiens, UniProt P61088); assay type: functional;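 further: Dose-response confirmation in a TR-FRET assay detecting UBC13-driven polyubiquitin chain formation, inhibition measured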
T4 sequence (P61088 whole entry): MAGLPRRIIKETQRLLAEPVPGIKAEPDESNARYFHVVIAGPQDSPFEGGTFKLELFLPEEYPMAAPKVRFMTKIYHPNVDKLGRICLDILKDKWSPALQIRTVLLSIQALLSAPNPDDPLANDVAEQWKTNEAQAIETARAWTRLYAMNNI

[17] = cytotoxicity in HEK-293T cells, dose response, cytotoxicity control for TCR NF-kB inhibitor project, luminescence, T-cell screen hits (AID 489026); assay type: functional, cell-based;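 further: cells exposed to compound about 14 hours before the viability readout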

Sequence of Paired box protein Pax-8 (Q06710 whole entry): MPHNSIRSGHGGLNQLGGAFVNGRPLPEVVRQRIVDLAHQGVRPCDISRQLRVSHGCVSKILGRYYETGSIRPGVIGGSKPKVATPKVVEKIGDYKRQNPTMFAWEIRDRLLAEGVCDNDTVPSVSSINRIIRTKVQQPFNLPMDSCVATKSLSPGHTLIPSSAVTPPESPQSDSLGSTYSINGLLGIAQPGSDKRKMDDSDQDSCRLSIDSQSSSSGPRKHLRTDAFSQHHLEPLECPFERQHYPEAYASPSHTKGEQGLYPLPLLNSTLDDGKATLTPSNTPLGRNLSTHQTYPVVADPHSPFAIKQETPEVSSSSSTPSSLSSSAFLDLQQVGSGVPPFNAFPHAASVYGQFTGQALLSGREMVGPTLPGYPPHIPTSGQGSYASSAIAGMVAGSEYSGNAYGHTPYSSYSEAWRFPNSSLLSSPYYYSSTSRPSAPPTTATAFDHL

SMILES: CCOC(=O)C(=Cc1cc(=O)c(OC)co1)C(=O)OCC
- EC50 [1]: 0.367 µM (active)
- EC50 [2]: 15.2 µM (active)
- EC50 [3]: 2.93 µM (active)
- EC50 (BJ [4]): 7.57 µM (inconclusive)
- EC50 (BJ [5]): 4.28 µM (active)
- EC50 [6]: 8.28 µM (inconclusive)
- EC50 [7]: 3.55 µM (active)
- EC50 (BJ [8]): 0.592 µM (active)
- EC50 [9]: 4.24 µM (inconclusive)
- EC50 (BJ [10]): 8.75 µM (active)

SMILES: C[C@H](CO)N1C[C@H](C)[C@H](CN(C)Cc2ccc(C(F)(F)F)cc2)OCCCC[C@H](C)Oc2ccc(NC(=O)CCC(F)(F)F)cc2C1=O
- AC50 (Paired box protein Pax-8): 5.89 µM (active)
- AC50 [11]: 63.8 µM (active)
- AC50 [12]: 14.8 µM (active)

SMILES: COc1ccc(NC(=O)CCc2nc(O)c3ccccc3n2)cc1S(=O)(=O)N1CCCCC1
- IC50 (H9c2): > 79 µM (inactive)

SMILES: COCCCn1nc2c3c(ccc2c1O)C(=O)c1ccccc1C3=O
- AC50 [13]: 8.86 µM (active)

SMILES: O=C(O)c1ccc2c(c1)S(=O)(=O)c1cc(N3CCN(c4cnccn4)CC3)ccc1C2=O
- IC50 (H9c2): > 79 µM (inactive)

SMILES: O=C(Nc1ccccc1)n1sc2ccccc2c1=O
- IC50 (Hexokinase): > 25 µM (inactive)

SMILES: COc1cc(-c2[nH]c(C(=O)NC3CCN(Cc4ccccc4)CC3)cc3c4ccccc4nc2-3)cc(OC)c1OC
- EC50 [14]: 0.125 µM (active)
- EC50 [15]: 5.61 µM (active)
- IC50 [16]: > 20 µM (inactive)

SMILES: C[C@H]1CCCCO[C@@H](CN(C)Cc2ccc3c(c2)OCO3)[C@@H](C)CN([C@@H](C)CO)C(=O)c2cc(NC(=O)Nc3ccc(F)cc3)ccc2O1
- AC50 (Paired box protein Pax-8): 22 µM (active)
- AC50 [12]: 31.2 µM (active)

SMILES: O=C(Nc1ccc(S(=O)(=O)Nc2ccc(F)cc2)cc1)c1ccc(CN2CCOCC2)cc1
- IC50 [17]: > 80 µM (inactive)

SMILES: COc1ccccc1NC(=O)COC(=O)C12CC3CC(CC(Br)(C3)C1)C2
- IC50 [16]: > 20 µM (inactive)

SMILES: COc1ccccc1C(=O)Nc1cc(Cl)ccc1C(=O)O
- IC50 (Hexokinase): > 25 µM (inactive)
